Assays:
[1] = target: T1, GST-tagged KRAS-G12D (2-169) (Homo sapiens, UniProt P01116, G12D); assay: Nucleotide exchange assay (NEA), SOS-mediated, HTRF, KRAS G12D; type: biochemical; conditions: IC50 extracted at 30 min
T1 construct: GST-tagged KRAS-G12D (2-169, Reaction Biology, MSC-11-539); purchased Reaction Biology MSC-11-539 (KRAS G12D); MSC-11-502 (SOS1cat)
Method in brief: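 IC50 values come from 4-parameter fits at the 30 min time point of an SOS-driven exchange read by HTRF, normalised to DMSO (0%) and SOS-free blank (100%). Final reaction: 5 nM GST-KRAS-G12D (2-169), 20 nM SOScat, 150 nM fluorescent GTP-DY-647P1, after 1 h RT compound preincubation with KRAS and Tb-cryptate anti-GST.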

[2] = target: T2, KRAS G12D/RAF1 (Homo sapiens, UniProt P01116, G12D); assay: Protein-protein interaction (PPI) HTRF assay KRAS G12D/RAF1; type: binding
T2 construct: His6-MBP (N, cleaved yes); made in house; host or cells: E. coli
Method in brief: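 HTRF pairing of His-tagged RAF1 (52-131) plus Tb-cryptate donor with GppNHp-exchanged biotin-RAS (KRAS 1-169 wt/G12D/G12V, NRAS wt) plus streptavidin-d2 acceptor; compound sits 30 min with RAS first, then 1 h RT with RAF1. IC50 derived from 665/615 ratio, untagged RAF1 defining full inhibition.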

T2 sequence (P01116 with tags, fused parts or gaps isoform P01116-2 G12D): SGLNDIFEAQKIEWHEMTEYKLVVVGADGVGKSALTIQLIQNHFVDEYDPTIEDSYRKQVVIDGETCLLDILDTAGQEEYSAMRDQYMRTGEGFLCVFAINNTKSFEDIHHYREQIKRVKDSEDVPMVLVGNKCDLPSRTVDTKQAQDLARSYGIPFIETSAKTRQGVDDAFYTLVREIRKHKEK
T1 sequence (P01116 2-169 isoform P01116-2 G12D): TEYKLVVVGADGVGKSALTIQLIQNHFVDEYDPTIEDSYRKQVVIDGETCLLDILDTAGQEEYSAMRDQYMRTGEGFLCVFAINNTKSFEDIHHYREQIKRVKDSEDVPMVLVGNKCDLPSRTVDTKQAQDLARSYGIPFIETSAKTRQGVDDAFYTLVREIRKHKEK

For Cc1noc(-c2nn3c(c2Cl)CN(c2nc(OC[C@@]45CCCN4C[C@H](F)C5)nc(N4CC5(CCc6sc(N)c(C#N)c65)C4)c2C#N)CCC3)n1 [Compound 17, 2-amino-1′-[6-[3-chloro-2-(3-methyl-1,2,4-oxadiazol-5-yl)-4,6,7,8-tetrahydropyrazolo[1,5-a][1,4]diazepin-5-yl]-5-cyano-2-[[(2R,8S)-2-fluoro-1,2,3,5,6,7-hexahydropyrrolizin-8-yl]methoxy]pyrimidin-4-yl]spiro[5,6-dihydrocyclopenta[b]thiophene-4,3′-azetidine]-3-carbonitrile], the IC50 ([1]; Table 4) was < 10 nM and the IC50 ([2]; Table 4) was 1000 to 10000 nM.
With N#Cc1c(N2C[C@H]3CC[C@@H](C2)N3)nc(OC[C@@]23CCCN2C[C@H](F)C3)nc1N1CC2(CCc3sc(N)c(C#N)c32)C1 [Compound 25, 2-amino-1′-[5-cyano-6-(3,8-diazabicyclo[3.2.1]octan-3-yl)-2-[[(2R,8S)-2-fluoro-1,2,3,5,6,7-hexahydropyrrolizin-8-yl]methoxy]pyrimidin-4-yl]spiro[5,6-dihydrocyclopenta[b]thiophene-4,3′-azetidine]-3-carbonitrile] the IC50 ([1]; Table 4) was < 10 nM and the IC50 ([2]; Table 4) was 100 to 1000 nM.
For CN(C)C(=O)c1nn2c(c1Cl)CN(c1nc(OC[C@@]34CCCN3C[C@H](F)C4)nc(N3CC4(CCc5sc(N)c(C#N)c54)C3)c1C#N)CCC2 [Compound 2, 5-[6-(2-amino-3-cyano-spiro[5,6-dihydrocyclopenta[b]thiophene-4,3′-azetidine]-1′-yl)-5-cyano-2-[[(2R,8S)-2-fluoro-1,2,3,5,6,7-hexahydropyrrolizin-8-yl]methoxy]pyrimidin-4-yl]-3-chloro-N,N-dimethyl-4,6,7,8-tetrahydropyrazolo[1,5-a][1,4]diazepine-2-carboxamide], the IC50 ([1]; Table 2) was < 10 nM, the IC50 ([1]; Table 4) was < 10 nM and the IC50 ([2]; Table 2) was 100 to 1000 nM. It also gave an IC50 ([2]; Table 4) of 100 to 1000 nM.
For Cn1c(-c2nn3c(c2Cl)CN(c2nc(OC[C@@]45CCCN4C[C@H](F)C5)nc(N4CC5(CCc6sc(N)c(C#N)c65)C4)c2C#N)CCC3)nc2ccccc21 [Compound 30], the IC50 ([1]; Table 4) was < 10 nM and the IC50 ([2]; Table 4) was 10000 to 100000 nM.
In the case of CS(=O)(=O)c1cc2n(n1)CCCN(c1nc(OC[C@@]34CCCN3C[C@H](F)C4)nc(N3CC4(CCc5sc(N)c(C#N)c54)C3)c1C#N)C2 [Compound 21, 2-amino-1′-[5-cyano-2-[[(2R,8S)-2-fluoro-1,2,3,5,6,7-hexahydropyrrolizin-8-yl]methoxy]-6-(2-methylsulfonyl-4,6,7,8-tetrahydropyrazolo[1,5-a][1,4]diazepin-5-yl)pyrimidin-4-yl]spiro[5,6-dihydrocyclopenta[b]thiophene-4,3′-azetidine]-3-carbonitrile], the IC50 ([1]; Table 4) is reported as < 10 nM and the IC50 ([2]; Table 4) is reported as 1000 to 10000 nM.
Work on CN(CCOc1nc(N2C[C@H]3CC[C@@H](C2)N3)c(C#N)c(N2CC3(CCc4sc(N)c(C#N)c43)C2)n1)C1CCC1 [Compound 48, 2-amino-1′-[5-cyano-2-[2-[cyclobutyl(methyl)amino]ethoxy]-6-[(1R,5S)-3,8-diazabicyclo[3.2.1]octan-3-yl]pyrimidin-4-yl]spiro[5,6-dihydrocyclopenta[b]thiophene-4,3′-azetidine]-3-carbonitrile] yielded an IC50 ([1]; Table 4) of 10 to 100 nM and an IC50 ([2]; Table 4) of 10000 to 100000 nM.
In the case of C=C1CN2CCCC2(COc2nc(N3CCCn4nc(C(=O)N(C)C)c(Cl)c4C3)c(C#N)c(N3CC4(CCc5sc(N)c(C#N)c54)C3)n2)C1 (stereo not drawn) [Compound 93, 5-[6-(2-amino-3-cyano-spiro[5,6-dihydrocyclopenta[b]thiophene-4,3′-azetidine]-1′-yl)-5-cyano-2-[(6-methylene-2,3,5,7-tetrahydro-1H-pyrrolizin-8-yl)methoxy]pyrimidin-4-yl]-3-chloro-N,N-dimethyl-4,6,7,8-tetrahydropyrazolo[1,5-a][1,4]diazepine-2-carboxamide], the IC50 ([1]; Table 4) is reported as < 10 nM and the IC50 ([2]; Table 4) is reported as 100 to 1000 nM.
With N#Cc1c(N2C[C@H]3CC[C@@H](C2)N3)nc(OCC2(CN3CCOCC3)CC2)nc1N1CC2(CCc3sc(N)c(C#N)c32)C1 [Compound 4, 2-amino-1′-[5-cyano-2-[[1-(morpholinomethyl)cyclopropyl]methoxy]-6-[(1R,5S)-3,8-diazabicyclo[3.2.1]octan-3-yl]pyrimidin-4-yl]spiro[5,6-dihydrocyclopenta[b]thiophene-4,3′-azetidine]-3-carbonitrile] the IC50 ([1]; Table 4) was < 10 nM and the IC50 ([2]; Table 4) was < 100 nM.
CN(C)CC1(COc2nc(N3CC4CCC(C3)N4)c(C#N)c(N3CC4(CCc5sc(N)c(C#N)c54)C3)n2)CC1(F)F (stereo not drawn) [Compound 74B, 2-amino-1′-[5-cyano-6-(3,8-diazabicyclo[3.2.1]octan-3-yl)-2-[[(1*)-1-[(dimethylamino)methyl]-2,2-difluoro-cyclopropyl]methoxy]pyrimidin-4-yl]spiro[5,6-dihydrocyclopenta[b]thiophene-4,3′-azetidine]-3-carbonitrile] showed an IC50 ([1]; Table 4, listed as 74.2) of 10 to 100 nM and an IC50 ([2]; Table 4, listed as 74.2) of 10000 to 100000 nM.
CC1CC2(CN(c3nc(OC[C@@]45CCCN4C[C@H](F)C5)nc(N4CCCn5nc(C(=O)N(C)C)c(Cl)c5C4)c3C#N)C2)c2c1sc(N)c2C#N (stereo partly drawn) [Compound 14, 5-[6-(2-amino-3-cyano-6-methyl-spiro[5,6-dihydrocyclopenta[b]thiophene-4,3′-azetidine]-1′-yl)-5-cyano-2-[[(2R,8S)-2-fluoro-1,2,3,5,6,7-hexahydropyrrolizin-8-yl]methoxy]pyrimidin-4-yl]-3-chloro-N,N-dimethyl-4,6,7,8-tetrahydropyrazolo[1,5-a][1,4]diazepine-2-carboxamide] was tested, and the IC50 ([1]; Table 4) was < 10 nM and the IC50 ([2]; Table 4) was 100 to 1000 nM.
N#Cc1c(N2C[C@H]3CC[C@@H](C2)N3)nc(OCC2(CN3CCC(F)(F)CC3)CC2)nc1N1CC2(CCc3sc(N)c(C#N)c32)C1 [Compound 34, 2-amino-1′-[5-cyano-6-(3,8-diazabicyclo[3.2.1]octan-3-yl)-2-[[1-[(4,4-difluoro-1-piperidyl)methyl]cyclopropyl]methoxy]pyrimidin-4-yl]spiro[5,6-dihydrocyclopenta[b]thiophene-4,3′-azetidine]-3-carbonitrile] was tested, and the IC50 ([1]; Table 4) was < 10 nM and the IC50 ([2]; Table 4) was 100 to 1000 nM.
With CN(C)C(=O)c1nn2c(c1Cl)CN(c1nc(OC[C@@]34CCCN3C[C@H](F)C4)nc(N3CC4(CCCCc5sc(N)c(C#N)c54)C3)c1C#N)CCC2 [Compound 10, 5-[6-(2-amino-3-cyano-spiro[5,6,7,8-tetrahydrocyclohepta[b]thiophene-4,3′-azetidine]-1′-yl)-5-cyano-2-[[(2R,8S)-2-fluoro-1,2,3,5,6,7-hexahydropyrrolizin-8-yl]methoxy]pyrimidin-4-yl]-3-chloro-N,N-dimethyl-4,6,7,8-tetrahydropyrazolo[1,5-a][1,4]diazepine-2-carboxamide] the IC50 ([1]; Table 4) was < 10 nM and the IC50 ([2]; Table 4) was 1000 to 10000 nM.
In the case of N#Cc1c(N2C[C@H]3CC[C@@H](C2)N3)nc(OCc2ccn[nH]2)nc1N1CC2(CCc3sc(N)c(C#N)c32)C1 [Compound 79, 2-amino-1′-[5-cyano-6-[(1R,5S)-3,8-diazabicyclo[3.2.1]octan-3-yl]-2-(1H-pyrazol-5-ylmethoxy)pyrimidin-4-yl]spiro[5,6-dihydrocyclopenta[b]thiophene-4,3′-azetidine]-3-carbonitrile], the IC50 ([1]; Table 4) is reported as < 10 nM and the IC50 ([2]; Table 4) is reported as 100 to 1000 nM.
For CN(C)CC1(COc2nc(N3C[C@H]4CC[C@@H](C3)N4)c(C#N)c(N3CC4(CCc5sc(N)c(C#N)c54)C3)n2)CC1(F)F (mixture of isomers) [Compound 74, 2-amino-1′-[5-cyano-6-(3,8-diazabicyclo[3.2.1]octan-3-yl)-2-[[1-[(dimethylamino)methyl]-2,2-difluoro-cyclopropyl]methoxy]pyrimidin-4-yl]spiro[5,6-dihydrocyclopenta[b]thiophene-4,3′-azetidine]-3-carbonitrile], the IC50 ([1]; Table 4) was 10 to 100 nM and the IC50 ([2]; Table 4) was 10000 to 100000 nM.
